Among the data in ChEMBL document CHEMBL4270495, “Oleanane-, ursane-, and quinone methide friedelane-type triterpenoid derivatives: Recent advances in cancer treatment” (Eur J Med Chem, 2017) are IC50 values, retold here.

What all share (type): functional, cell-based
In experiment [1] the test system is HeLa. Nature of the experiment: Cytotoxicity in human HeLa cells assessed as reduction in cell viability incubated for 72 hrs by MTT assay. (In general: Formazan colour is commonly taken as a measure of viable cells.)
Experiment [2] concerns MDA-MB-231. Nature of the experiment: Cytotoxicity in human MDA-MB-231 cells assessed as reduction in cell viability incubated for 24 hrs by MTT assay. The conditions noted are these: MDA-MB-231, 24 h.
The test system of experiment [3] is TERT-RPE1. Briefly: Cytotoxicity in human hTERT-RPE1 cells assessed as reduction in cell viability incubated for 24 hrs by MTT assay. The conditions noted are these: RPE-1, 24 h.
Experiment [4] deals with MCF7. Briefly: Cytotoxicity in human MCF7 cells assessed as reduction in cell viability incubated for 24 hrs by MTT assay. The conditions noted are these: MCF7, 24 h.

What is called pIC50 is the negative decadic logarithm of the IC50, by convention in mol/L.

SMILES strings stand for the structures. pIC50: −log10 of the molar value.

With `CC(=O)OC[C@@]1(C)[C@@H]2CC[C@]3(C)[C@H](CC=C4[C@@H]5[C@@H](C)[C@H](C)CC[C@]5(C(=O)NO)CC[C@]43C)[C@@]2(C)C[C@@H](OC(C)=O)[C@@H]1OC(C)=O`, in experiment [1], the pIC50 was 5.79.
`COC(=O)/C=C/c1ccc(OC)c(OC(=O)[C@@]2(C)CC[C@]3(C)CC[C@]4(C)C(=CC(=O)[C@@H]5[C@@]6(C)CC[C@H](OC(=O)[C@@H](N)CCSC)C(C)(C)[C@@H]6CC[C@]54C)[C@H]3C2)c1`: the values for the pIC50 in experiment [2], in experiment [3] and in experiment [4] were 5.34, 5.05 and 5.06, respectively.
With `CCOC(=O)/C=C/c1ccc(OC)c(OC(=O)[C@@]2(C)CC[C@]3(C)CC[C@]4(C)C(=CC(=O)[C@@H]5[C@@]6(C)CC[C@H](OC(=O)[C@@H](N)CC[Se]C)C(C)(C)[C@@H]6CC[C@]54C)[C@H]3C2)c1`, the results for the pIC50 in experiment [2], in experiment [3] and in experiment [4] were 5.49, 5.00 and 5.16, respectively.
For `CCOC(=O)/C=C/c1ccc(OC(=O)[C@@]2(C)CC[C@]3(C)CC[C@]4(C)C(=CC(=O)[C@@H]5[C@@]6(C)CC[C@H](OC(=O)[C@@H](N)CCSC)C(C)(C)[C@@H]6CC[C@]54C)[C@H]3C2)cc1`, in that order: 5.64, 5.25 and 5.58.
The corresponding values for `COC(=O)/C=C/c1ccc(OC)c(OC(=O)[C@@]2(C)CC[C@]3(C)CC[C@]4(C)C(=CC(=O)[C@@H]5[C@@]6(C)CC[C@H](OC(=O)[C@@H](N)CC[Se]C)C(C)(C)[C@@H]6CC[C@]54C)[C@H]3C2)c1` are 5.50, 5.01 and 5.29.
Regarding `CCOC(=O)/C=C/c1ccc(OC(=O)[C@@]2(C)CC[C@]3(C)CC[C@]4(C)C(=CC(=O)[C@@H]5[C@@]6(C)CC[C@H](OC(=O)[C@@H](N)CC[Se]C)C(C)(C)[C@@H]6CC[C@]54C)[C@H]3C2)cc1`, the pIC50 in experiment [2] is 5.73; in experiment [3], 5.15; in experiment [4], 5.62.
For `CCOC(=O)/C=C/c1cccc(OC(=O)[C@@]2(C)CC[C@]3(C)CC[C@]4(C)C(=CC(=O)[C@@H]5[C@@]6(C)CC[C@H](OC(=O)[C@@H](N)CCSC)C(C)(C)[C@@H]6CC[C@]54C)[C@H]3C2)c1`, in that order: 5.72, 5.18 and 5.24.
As to `CC(=O)OC[C@@]1(C)[C@@H]2CC[C@]3(C)[C@H](CC=C4[C@@H]5[C@@H](C)[C@H](C)CC[C@]5(C(=O)N(C)O)CC[C@]43C)[C@@]2(C)C[C@@H](OC(C)=O)[C@@H]1OC(C)=O`, the pIC50 in experiment [1] is 5.42.
For `COC(=O)/C=C/c1cccc(OC(=O)[C@@]2(C)CC[C@]3(C)CC[C@]4(C)C(=CC(=O)[C@@H]5[C@@]6(C)CC[C@H](OC(=O)[C@@H](N)CCSC)C(C)(C)[C@@H]6CC[C@]54C)[C@H]3C2)c1`, the negative logarithm of the IC50 (pIC50) in experiment [2] is 5.45; in experiment [3] it was 5.07; in experiment [4], 5.14.
For `CCOC(=O)/C=C/c1ccc(OC)c(OC(=O)[C@@]2(C)CC[C@]3(C)CC[C@]4(C)C(=CC(=O)[C@@H]5[C@@]6(C)CC[C@H](OC(=O)[C@@H](N)CCSC)C(C)(C)[C@@H]6CC[C@]54C)[C@H]3C2)c1`, in that order: 5.33, 4.90 and 5.06.
As to `CCOC(=O)/C=C/c1cccc(OC(=O)[C@@]2(C)CC[C@]3(C)CC[C@]4(C)C(=CC(=O)[C@@H]5[C@@]6(C)CC[C@H](OC(=O)[C@@H](N)CC[Se]C)C(C)(C)[C@@H]6CC[C@]54C)[C@H]3C2)c1`, the figures for the pIC50 in experiment [2], in experiment [3] and in experiment [4] were 5.82, 5.43 and 5.59, respectively.
For `COC(=O)/C=C/c1cccc(OC(=O)[C@@]2(C)CC[C@]3(C)CC[C@]4(C)C(=CC(=O)[C@@H]5[C@@]6(C)CC[C@H](OC(=O)[C@@H](N)CC[Se]C)C(C)(C)[C@@H]6CC[C@]54C)[C@H]3C2)c1`, in that order: 5.61, 5.34 and 5.46.
